{
  "source": "patent US20100056519A1",
  "about": "“COMPOSITION AND METHOD FOR REDUCING PLATELET ACTIVATION AND FOR THE TREATMENT OF THROMBOTIC EVENTS” (priority 2008, published 2010)",
  "format_in_all_cases": "cell-based, human",
  "key": {"platelets": {"test_system": "platelets", "assay": "Platelet Function Analyzer PFA-100, ADP/Collagen cartridge", "settings": "for Closure time (s): recording limit 300 s", "protocol": "(§1) The methodology employed was conventional aggregation induced by 5 μM ADP, 1 μg/ml collagen, 10 μM TRAP, whole blood aggregation with 1 μg/ml collagen, Ultegra, and PFA-100 Analyzers, expression of 14 intact, and TRAP-stimulated major receptors by whole blood flow cytometry were utilized to assess platelet activity after preincubation with escalating concentrations of E5555 (20 ng/ml, 50 ng/ml, and 100 ng/ml). The experiments were performed in healthy volunteers, CAD patients treated with ASA, and CAD patients treated with ASA and clopidogrel combination (n=10, for each group).\n(§2) An Informed Consent was obtained from all volunteers. Drug users were excluded from data analysis. The study was approved by Quorum Institutional Review Board. All subjects underwent blood sampling after at least 30 minutes of rest and two or more hours of fasting. Blood (28 ml) was drawn between 8 and 10 a.m. in order to avoid any diurnal influence and sampled from an antecubital vein using a 21-gauge butterfly needle containing 3.2% sodium citrate (1:9 volume) after having discarded the first 1.5 ml of free running blood. Four Vacutainer tubes (7.0 ml) were collected for a total of 28 ml of whole blood-citrate mixture from each study participant. Chronologically, blood samples were delivered to the core laboratory facility within 45 minutes after drawing. Then all tubes of blood-citrate mixture were pooled. One portion of pooled blood (5 ml) was kept as an internal control and pretreated with the vehicle. The remaining blood (23 ml) was used for the in vitro exposure to E5555 at concentrations of 20 ng/ml, 50 ng/ml, and 100 ng/ml. […] The platelet aggregation studies, Rapid Analyzers measures, and flow cytometry preparations were initiated within no more than 110 minutes following the blood draw, incubation with the drug, and preparation of the samples.\nWhole blood aggregation was determined using a Chronolog device 592A. The whole blood-citrate mixture was diluted 1:1 with 0.5 ml phosphate buffered saline and gently swirled. The sample then was allowed to warm to 37° C. for 5 minutes then transferred to the assay well. The electrode was then placed in the cuvette and the sample was stimulated with 1 μg/ml collagen. The change in electrical impedance was digitally recorded. Each whole blood sample was analyzed utilizing 2 different clinical devices: • (1) a Rapid Platelet-Function Assay (Ultegra®) (Accumetrics, Inc., San Diego, Calif.), which is a rapid platelet-function assay aspirin cartridge test with TRAP used as agonist. Polystyrene beads coated with fibrinogen are placed in a cartridge along with the peptide that activates thrombin receptor. Anticoagulated whole blood was added to the cartridge, and agglutination between platelets and coated beads was recorded. The data mirrors turbidimetric platelet aggregation and presumably reflects platelet glycoprotein IIb/IIIa blockade. Ultegra RPFA-TRAP Assay results were reported as Platelet Activation Units (PAU); and • (2) Platelet-Function Analyzer PFA-100 ™ (Dade Behring, Deerfield Ill.), which is a high shear-inducing analyzer that simulates primary hemostasis after injury to a small vessel under flow conditions. The device provides a constant negative pressure that aspirates whole blood, which comes into contact with the collagen, coated membrane and then passes through the aperture. The time required to obtain occlusion of the aperture is digitally recorded. The time to aperture occlusion (the closure time) is recorded in seconds and is inversely related to the degree of shear-induced platelet activation. We used ADP/Collagen cartridges in the index study. Both PFA-100 and Ultegra assays were performed in duplicate. An electronic quality control test was performed on each instrument daily prior to performing any patient samples."}, "CD-40L (CD154)": {"test_system": "CD-40L (CD154)", "assay": "Unstimulated whole blood flow cytometry, CD40-ligand", "settings": "for CD-40L (CD154), Mean Fluorescence Intensity: unstimulated, Mean ± SD", "protocol": "as §1, §2\n(§3) Formation of platelet-leukocyte aggregates was assessed by dual labeling with pan-platelet marker (CD151), and then with CD14, the macrophage receptor for endotoxin lipopolysaccharides (PharMingen, and Coulter, San Diego, Calif., USA). The tubes were then covered with aluminum foil and incubated at 37° C. for 40 minutes with gentle rotation. After incubation, samples were immediately analyzed on a Becton Dickinson FACScan flow cytometer. The instrument was set up to measure forward light scatter, and FITC fluorescence. All parameters were collected using four-decade logarithmic amplification. The data was retrieved in list mode files and then analyzed. P selectin was expressed as percent positive cells. Other antigens were expressed as log mean fluorescence intensity."}, "WEDE15": {"test_system": "WEDE15", "assay": "Unstimulated whole blood flow cytometry, WEDE15", "settings": "Mean ± SD", "protocol": "as §1, §2, §3"}, "[1]": {"settings": "E5555 20 ng/ml, Patients (ASA + C)"}, "[2]": {"settings": "E5555 50 ng/ml, Patients (ASA + C)"}, "[3]": {"settings": "E5555 100 ng/ml, Patients (ASA + C)"}, "[4]": {"settings": "E5555 100 ng/ml, Patients (ASA)"}},
  "note": "Marks after values point to notes of the source that are not given here.",
  "data": [
    {"compound": "Br.CCOc1cc2c(c(F)c1OCC)C(=N)N(CC(=O)c1cc(N3CCOCC3)c(OC)c(C(C)(C)C)c1)C2", "note": "[E5555, 1-(3-tert-butyl-4-methoxy-5-morpholinophenyl)-2-(5,6-diethoxy-7-fluoro-1-imino-1,3-dihydro-2H-isoindol-2-yl)ethanone hydrobromide]", "values": [
      {"measurement": "Closure time (s)", "setting": "platelets; [1]", "result": ">300*† s"},
      {"measurement": "Closure time (s)", "setting": "platelets; E5555 20 ng/ml, Patients (ASA)", "result": ">300*† s"},
      {"measurement": "Closure time (s)", "setting": "platelets; E5555 20 ng/ml, Volunteers", "result": ">300*† s"},
      {"measurement": "Closure time (s)", "setting": "platelets; [2]", "result": ">300*† s"},
      {"measurement": "Closure time (s)", "setting": "platelets; E5555 50 ng/ml, Patients (ASA)", "result": ">300*† s"},
      {"measurement": "Closure time (s)", "setting": "platelets; E5555 50 ng/ml, Volunteers", "result": ">300*† s"},
      {"measurement": "Closure time (s)", "setting": "platelets; [3]", "result": ">300*† s"},
      {"measurement": "Closure time (s)", "setting": "platelets; [4]", "result": ">300*† s"},
      {"measurement": "Closure time (s)", "setting": "platelets; E5555 100 ng/ml, Volunteers", "result": ">300*† s"},
      {"measurement": "Platelet Analyzer readings, shear-induced activation, effect in words", "setting": "platelets; overall summary", "result": "reduced shear-induced activation"},
      {"measurement": "CD40-ligand, effect in words", "setting": "CD-40L (CD154); overall summary, stimulation not stated", "result": "not affected"},
      {"measurement": "CD-40L (CD154), Mean Fluorescence Intensity", "setting": "CD-40L (CD154); [1]", "result": "5.1 ± 1.0", "unit": "MFI"},
      {"measurement": "CD-40L (CD154), Mean Fluorescence Intensity", "setting": "CD-40L (CD154); E5555 20 ng/ml, Patients (ASA)", "result": "5.0 ± 1.0", "unit": "MFI"},
      {"measurement": "CD-40L (CD154), Mean Fluorescence Intensity", "setting": "CD-40L (CD154); E5555 20 ng/ml, Volunteers", "result": "5.4 ± 0.8", "unit": "MFI"},
      {"measurement": "CD-40L (CD154), Mean Fluorescence Intensity", "setting": "CD-40L (CD154); [2]", "result": "5.2 ± 0.7", "unit": "MFI"},
      {"measurement": "CD-40L (CD154), Mean Fluorescence Intensity", "setting": "CD-40L (CD154); E5555 50 ng/ml, Patients (ASA)", "result": "5.2 ± 0.8", "unit": "MFI"},
      {"measurement": "CD-40L (CD154), Mean Fluorescence Intensity", "setting": "CD-40L (CD154); E5555 50 ng/ml, Volunteers", "result": "5.3 ± 0.5", "unit": "MFI"},
      {"measurement": "CD-40L (CD154), Mean Fluorescence Intensity", "setting": "CD-40L (CD154); [3]", "result": "5.3 ± 1.3", "unit": "MFI"},
      {"measurement": "CD-40L (CD154), Mean Fluorescence Intensity", "setting": "CD-40L (CD154); [4]", "result": "5.1 ± 1.0", "unit": "MFI"},
      {"measurement": "CD-40L (CD154), Mean Fluorescence Intensity", "setting": "CD-40L (CD154); E5555 100 ng/ml, Volunteers", "result": "5.0 ± 0.9", "unit": "MFI"},
      {"measurement": "WEDE15, Mean Fluorescence Intensity", "setting": "WEDE15; [1]", "result": "30 ± 8", "unit": "MFI"},
      {"measurement": "WEDE15, Mean Fluorescence Intensity", "setting": "WEDE15; E5555 20 ng/ml, Patients (ASA)", "result": "40 ± 11", "unit": "MFI"},
      {"measurement": "WEDE15, Mean Fluorescence Intensity", "setting": "WEDE15; E5555 20 ng/ml, Volunteers", "result": "40 ± 9", "unit": "MFI"},
      {"measurement": "WEDE15, Mean Fluorescence Intensity", "setting": "WEDE15; [2]", "result": "27 ± 6", "unit": "MFI"},
      {"measurement": "WEDE15, Mean Fluorescence Intensity", "setting": "WEDE15; E5555 50 ng/ml, Patients (ASA)", "result": "38 ± 8", "unit": "MFI"},
      {"measurement": "WEDE15, Mean Fluorescence Intensity", "setting": "WEDE15; E5555 50 ng/ml, Volunteers", "result": "41 ± 6", "unit": "MFI"},
      {"measurement": "WEDE15, Mean Fluorescence Intensity", "setting": "WEDE15; [3]", "result": "29 ± 12", "unit": "MFI"},
      {"measurement": "WEDE15, Mean Fluorescence Intensity", "setting": "WEDE15; [4]", "result": "35 ± 5", "unit": "MFI"},
      {"measurement": "WEDE15, Mean Fluorescence Intensity", "setting": "WEDE15; E5555 100 ng/ml, Volunteers", "result": "40 ± 10", "unit": "MFI"}
    ]}
  ]
}
